Organism: Rattus norvegicus
Assay: DrugMatrix - Regimen: Daily Repeat
Assay type: toxicity, organism-based, Sprague-Dawley
Set-up: regimen Daily Repeat, gender Male, age 6-8 weeks
Settings: in vivo, po, route oral GAVAGE, vehicle .5 % CMC; for ABSOLUTE BASOPHIL / ABSOLUTE EOSINOPHIL / ABSOLUTE LYMPHOCYTE / ABSOLUTE MONOCYTE / ABSOLUTE SEGMENTED NEUTROPHIL / BASOPHIL / EOSINOPHIL / ERYTHROCYTE COUNT / HEMATOCRIT / HEMOGLOBIN / LEUKOCYTE COUNT / LYMPHOCYTE / MEAN CORPUSCULAR HEMOGLOBIN / MEAN CORPUSCULAR HEMOGLOBIN CONCENTRATION / MEAN CORPUSCULAR VOLUME / MONOCYTE / NEUTROPHIL / NUCLEATED RED BLOOD CELLS / PLATELET COUNT: tissue Blood; for ALANINE AMINOTRANSFERASE / ALBUMIN / ALKALINE PHOSPHATASE / ASPARTATE AMINOTRANSFERASE / BLOOD UREA NITROGEN / CARBON DIOXIDE / CHLORIDE / CHOLESTEROL / CREATINE PHOSPHOKINASE / CREATININE / GLUCOSE / LACTATE DEHYDROGENASE / LIPASE / PHOSPHORUS / POTASSIUM / SODIUM / TOTAL BILIRUBIN / TOTAL PROTEIN / URIC ACID: tissue Plasma
[1] = 0 mg/kg, 72 h, dose level Control, time 3 day
[2] = 0 mg/kg, 120 h, dose level Control, time 5 day
[3] = 20 mg/kg, 72 h, dose level Low, time 3 day

NC(=O)N1c2ccccc2CC(=O)c2ccccc21 [OXCARBAZEPINE]
ABSOLUTE BASOPHIL [1]: 0 CELLS/uL
ABSOLUTE EOSINOPHIL [1]: 0 CELLS/uL
ABSOLUTE LYMPHOCYTE [1]: 12269.67 CELLS/uL
ABSOLUTE MONOCYTE [1]: 160.33 CELLS/uL
ABSOLUTE SEGMENTED NEUTROPHIL [1]: 970 CELLS/uL
BASOPHIL [1]: 0%
EOSINOPHIL [1]: 0%
ERYTHROCYTE COUNT [1]: 5.76 x10E6/uL
HEMATOCRIT [1]: 36.57%
HEMOGLOBIN [1]: 14.22 G/DL
LEUKOCYTE COUNT [1]: 13.4 x10E3/uL
LYMPHOCYTE [1]: 91.67%
MEAN CORPUSCULAR HEMOGLOBIN [1]: 24.67 pg
MEAN CORPUSCULAR HEMOGLOBIN CONCENTRATION [1]: 38.85 G/DL
MEAN CORPUSCULAR VOLUME [1]: 63.52 fL
MONOCYTE [1]: 1.17%
NEUTROPHIL [1]: 7.17%
NUCLEATED RED BLOOD CELLS [1]: 0.33 /100WBC
PLATELET COUNT [1]: 1250.83 x10E3/uL
ALANINE AMINOTRANSFERASE [1]: 49.17 u/L
ALBUMIN [1]: 4.33 G/DL
ALKALINE PHOSPHATASE [1]: 378.5 u/L
ASPARTATE AMINOTRANSFERASE [1]: 82.17 u/L
BLOOD UREA NITROGEN [1]: 15 mg/dL
CARBON DIOXIDE [1]: 34.33 mmol/L
CHLORIDE [1]: 99.17 MEQ/L
CHOLESTEROL [1]: 71.17 mg/dL
CREATINE PHOSPHOKINASE [1]: 258.67 u/L
CREATININE [1]: 0.18 mg/dL
GLUCOSE [1]: 142.67 mg/dL
LACTATE DEHYDROGENASE [1]: 154.33 u/L
LIPASE [1]: 9 u/L
PHOSPHORUS [1]: 11.67 mg/dL
POTASSIUM [1]: 7.13 MEQ/L
SODIUM [1]: 142.22 MEQ/L
TOTAL BILIRUBIN [1]: 0.18 mg/dL
TOTAL PROTEIN [1]: 5.77 G/DL
URIC ACID [1]: 1.55 mg/dL
ABSOLUTE BASOPHIL [2]: 0 CELLS/uL
ABSOLUTE EOSINOPHIL [2]: 23.33 CELLS/uL
ABSOLUTE LYMPHOCYTE [2]: 14943.67 CELLS/uL
ABSOLUTE MONOCYTE [2]: 32 CELLS/uL
ABSOLUTE SEGMENTED NEUTROPHIL [2]: 1084.33 CELLS/uL
BASOPHIL [2]: 0%
EOSINOPHIL [2]: 0.17%
ERYTHROCYTE COUNT [2]: 5.71 x10E6/uL
HEMATOCRIT [2]: 35.28%
HEMOGLOBIN [2]: 14.27 G/DL
LEUKOCYTE COUNT [2]: 16.08 x10E3/uL
LYMPHOCYTE [2]: 93%
MEAN CORPUSCULAR HEMOGLOBIN [2]: 25.02 pg
MEAN CORPUSCULAR HEMOGLOBIN CONCENTRATION [2]: 40.43 G/DL
MEAN CORPUSCULAR VOLUME [2]: 61.82 fL
MONOCYTE [2]: 0.17%
NEUTROPHIL [2]: 6.67%
NUCLEATED RED BLOOD CELLS [2]: 0.33 /100WBC
PLATELET COUNT [2]: 1274 x10E3/uL
ALANINE AMINOTRANSFERASE [2]: 54.17 u/L
ALBUMIN [2]: 4.22 G/DL
ALKALINE PHOSPHATASE [2]: 373.17 u/L
ASPARTATE AMINOTRANSFERASE [2]: 81.83 u/L
BLOOD UREA NITROGEN [2]: 16.67 mg/dL
CARBON DIOXIDE [2]: 30.33 mmol/L
CHLORIDE [2]: 99 MEQ/L
CHOLESTEROL [2]: 71 mg/dL
CREATINE PHOSPHOKINASE [2]: 273.5 u/L
CREATININE [2]: 0.22 mg/dL
GLUCOSE [2]: 141.83 mg/dL
LACTATE DEHYDROGENASE [2]: 153.67 u/L
LIPASE [2]: 10.33 u/L
PHOSPHORUS [2]: 11.38 mg/dL
POTASSIUM [2]: 7.08 MEQ/L
SODIUM [2]: 142.75 MEQ/L
TOTAL BILIRUBIN [2]: 0.18 mg/dL
TOTAL PROTEIN [2]: 6.1 G/DL
URIC ACID [2]: 1.67 mg/dL
ABSOLUTE BASOPHIL [3]: 0 CELLS/uL
ABSOLUTE EOSINOPHIL [3]: 39.67 CELLS/uL
ABSOLUTE LYMPHOCYTE [3]: 12910 CELLS/uL
ABSOLUTE MONOCYTE [3]: 169.33 CELLS/uL
ABSOLUTE SEGMENTED NEUTROPHIL [3]: 1314.33 CELLS/uL
BASOPHIL [3]: 0%
EOSINOPHIL [3]: 0.33%
ERYTHROCYTE COUNT [3]: 5.51 x10E6/uL
HEMATOCRIT [3]: 35.53%
HEMOGLOBIN [3]: 14 G/DL
LEUKOCYTE COUNT [3]: 14.43 x10E3/uL
LYMPHOCYTE [3]: 90%
MEAN CORPUSCULAR HEMOGLOBIN [3]: 25.43 pg
MEAN CORPUSCULAR HEMOGLOBIN CONCENTRATION [3]: 39.43 G/DL
MEAN CORPUSCULAR VOLUME [3]: 64.5 fL
MONOCYTE [3]: 1.33%
NEUTROPHIL [3]: 8.33%
NUCLEATED RED BLOOD CELLS [3]: 0.33 /100WBC
PLATELET COUNT [3]: 1357.67 x10E3/uL
ALANINE AMINOTRANSFERASE [3]: 55.67 u/L
ALBUMIN [3]: 4.33 G/DL
ALKALINE PHOSPHATASE [3]: 378.33 u/L
ASPARTATE AMINOTRANSFERASE [3]: 87.67 u/L
BLOOD UREA NITROGEN [3]: 12.67 mg/dL
CARBON DIOXIDE [3]: 27.33 mmol/L
CHLORIDE [3]: 103 MEQ/L
CHOLESTEROL [3]: 73.33 mg/dL
CREATINE PHOSPHOKINASE [3]: 333.33 u/L
CREATININE [3]: 0.24 mg/dL
GLUCOSE [3]: 150.67 mg/dL
LACTATE DEHYDROGENASE [3]: 316 u/L
LIPASE [3]: 10 u/L
PHOSPHORUS [3]: 13.2 mg/dL
POTASSIUM [3]: 7.12 MEQ/L
SODIUM [3]: 146.57 MEQ/L
TOTAL BILIRUBIN [3]: 0.2 mg/dL
TOTAL PROTEIN [3]: 5.93 G/DL
URIC ACID [3]: 2.37 mg/dL
